Experimental data as given in patent publication US6005007A, “Retinoids, methods for their production and use” (priority 1997, dated 1999).

Tests used:
RARα = target: T1, RARα (Homo sapiens, UniProt P10276); assay: Receptor binding, RARα; settings: tritiated retinoid competition
T1 sequence (P10276 1-462): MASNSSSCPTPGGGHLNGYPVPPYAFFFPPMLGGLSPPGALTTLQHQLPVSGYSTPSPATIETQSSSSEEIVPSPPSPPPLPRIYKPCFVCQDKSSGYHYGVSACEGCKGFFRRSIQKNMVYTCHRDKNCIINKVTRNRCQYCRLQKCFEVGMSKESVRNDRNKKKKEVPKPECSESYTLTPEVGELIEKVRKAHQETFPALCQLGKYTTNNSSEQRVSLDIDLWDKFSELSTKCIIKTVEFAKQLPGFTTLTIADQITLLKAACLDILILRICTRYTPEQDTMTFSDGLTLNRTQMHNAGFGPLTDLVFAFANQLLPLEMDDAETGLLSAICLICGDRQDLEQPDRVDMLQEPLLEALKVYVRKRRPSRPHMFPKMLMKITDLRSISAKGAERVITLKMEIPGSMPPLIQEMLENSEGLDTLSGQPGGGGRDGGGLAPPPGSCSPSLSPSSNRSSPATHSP

RXRα = target: T2, RXRα (Homo sapiens, UniProt P19793); assay: Co-transfection assay, RXRα agonist activity; type: cell-based; design: expressed in transfected cells; host or cells: CV-1 (African green monkey kidney fibroblasts); settings: CV-1 cells, luciferase reporter, read-out: RXRα Pot
T2 sequence (P19793 1-462): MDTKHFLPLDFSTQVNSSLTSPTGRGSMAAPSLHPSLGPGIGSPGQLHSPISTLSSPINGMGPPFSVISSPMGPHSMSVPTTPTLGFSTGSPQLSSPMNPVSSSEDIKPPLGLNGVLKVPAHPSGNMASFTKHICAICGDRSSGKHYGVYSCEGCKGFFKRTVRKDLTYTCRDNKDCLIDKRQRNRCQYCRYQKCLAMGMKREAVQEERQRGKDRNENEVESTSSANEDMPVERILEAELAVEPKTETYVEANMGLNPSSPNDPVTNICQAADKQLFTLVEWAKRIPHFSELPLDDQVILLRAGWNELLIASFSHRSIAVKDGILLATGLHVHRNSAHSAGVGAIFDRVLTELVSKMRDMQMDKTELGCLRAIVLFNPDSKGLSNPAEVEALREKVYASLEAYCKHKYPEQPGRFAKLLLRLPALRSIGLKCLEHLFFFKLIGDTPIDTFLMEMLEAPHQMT

RARγ = target: T3, RARγ (Homo sapiens, UniProt P13631); assay: Co-transfection assay, RARγ agonist activity; type: cell-based; design: expressed in transfected cells; host or cells: CV-1 (African green monkey kidney fibroblasts); settings: CV-1 cells, luciferase reporter, read-out: RARγ Pot
T3 sequence (P13631 1-454): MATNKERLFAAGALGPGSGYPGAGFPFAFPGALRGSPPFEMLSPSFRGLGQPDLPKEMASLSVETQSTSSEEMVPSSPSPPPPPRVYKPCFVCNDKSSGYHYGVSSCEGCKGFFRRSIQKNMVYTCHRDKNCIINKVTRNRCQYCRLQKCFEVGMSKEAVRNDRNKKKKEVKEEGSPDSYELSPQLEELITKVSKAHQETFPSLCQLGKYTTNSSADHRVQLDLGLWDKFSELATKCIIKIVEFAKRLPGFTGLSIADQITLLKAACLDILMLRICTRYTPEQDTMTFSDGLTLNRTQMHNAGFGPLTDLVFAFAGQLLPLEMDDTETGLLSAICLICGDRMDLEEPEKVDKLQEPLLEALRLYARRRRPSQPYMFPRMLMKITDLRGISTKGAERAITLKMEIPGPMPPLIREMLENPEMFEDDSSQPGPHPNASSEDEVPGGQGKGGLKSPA

RXRβ = target: T4, RXRβ (Mus musculus, UniProt P28704); assay: Receptor binding, RXRβ; settings: tritiated retinoid competition
T4 sequence (P28704 1-520): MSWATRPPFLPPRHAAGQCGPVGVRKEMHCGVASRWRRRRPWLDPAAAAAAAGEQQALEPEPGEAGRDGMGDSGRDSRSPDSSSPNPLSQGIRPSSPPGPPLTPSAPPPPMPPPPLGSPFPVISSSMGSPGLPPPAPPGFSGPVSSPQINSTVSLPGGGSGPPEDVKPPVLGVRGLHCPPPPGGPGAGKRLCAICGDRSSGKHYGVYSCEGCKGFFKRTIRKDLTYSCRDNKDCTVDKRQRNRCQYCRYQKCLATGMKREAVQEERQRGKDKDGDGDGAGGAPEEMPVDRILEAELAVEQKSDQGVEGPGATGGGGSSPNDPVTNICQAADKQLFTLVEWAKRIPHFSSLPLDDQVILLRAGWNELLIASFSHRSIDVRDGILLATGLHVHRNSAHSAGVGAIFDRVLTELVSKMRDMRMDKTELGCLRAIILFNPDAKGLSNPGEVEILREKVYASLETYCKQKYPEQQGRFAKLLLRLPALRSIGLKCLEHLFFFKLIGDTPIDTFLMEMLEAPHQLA

RARβ = target: T5, RARβ (Homo sapiens, UniProt P10826); assay: Receptor binding, RARβ; settings: tritiated retinoid competition
T5 sequence (P10826 1-448 isoform P10826-2): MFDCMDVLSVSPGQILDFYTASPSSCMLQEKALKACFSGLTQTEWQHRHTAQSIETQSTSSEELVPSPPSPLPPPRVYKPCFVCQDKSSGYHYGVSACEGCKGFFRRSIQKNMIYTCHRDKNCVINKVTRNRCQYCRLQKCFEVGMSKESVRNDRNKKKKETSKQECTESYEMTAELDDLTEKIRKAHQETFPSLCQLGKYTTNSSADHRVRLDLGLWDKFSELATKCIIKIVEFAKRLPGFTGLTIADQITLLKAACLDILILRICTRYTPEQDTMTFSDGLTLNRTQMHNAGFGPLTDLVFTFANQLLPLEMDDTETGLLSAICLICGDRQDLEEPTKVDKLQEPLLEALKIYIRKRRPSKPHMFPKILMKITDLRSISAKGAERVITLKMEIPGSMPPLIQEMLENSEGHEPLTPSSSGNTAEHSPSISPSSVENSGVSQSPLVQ

Kd (RARα) [nM]	EC50 (RXRα) [nM]	EC50 (RARγ) [nM]	Kd (RXRβ) [nM]	Kd (RARβ) [nM]	SMILES
644	13	24	6	463	CC(/C=C/CC1(c2ccc3c(c2)C(C)(C)CCC3(C)C)CC1)=C\C(=O)O [Compound 101, (2E, 4E)-6-[1-(5,5,8,8-Tetramethyl-5,6,7,8-tetrahydronaphtha-len-2-yl)cyclopropanyl]-3-methyl hexadienoic acid]
> 5000	34	> 10000	15	> 5000	CC(/C=C/CC1(c2cc(C(C)(C)C)cc3c2CCC3(C)C)CC1)=C\C(=O)O [Compound 107, (2E, 4E)-6-[1-(6-t-butyl-1,1-dimethyl-indan-4-yl)-cyclopropyl]-3-methyl hexadienoic acid]
> 5000	63	> 10000	357	> 5000	CC(/C=C/CC1(c2ccc3c(c2)C(C)(C)CCC3(C)C)CCCC1)=C\C(=O)O [Compound 108, (2E, 4E)-6-[(5,5,8,8-Tetramethyl-5,6,7,8-tetrahydronaphtha-len-2-yl)cyclopentane-1-yl]-3-methyl hexadienoic acid]
